Measured values taken from paper PMC7811009, “Oxytocin modulates local topography of human functional connectome in healthy men at rest” (Communications Biology, 2021).

How the values were obtained:
[1] = system: human functional connectome at rest; assay: Resting-state BOLD-fMRI, graph theory: nodal local efficiency (mesoscale); same doses, time and cohort; format: in vivo; details: post-hoc paired t-tests, FDR
Protocol: Each experimental session began with the treatment administration protocol that lasted about 22 min in total (Fig. 8, lower panel). After drug administration, participants were guided to the MRI scanner, where eight pulsed continuous arterial spin labelling scans (each lasting approx. eight minutes) were acquired, spanning 15–104 min post-dosing (data reported elsewhere[11]). The 8-min resting state BOLD-fMRI scan reported herein was obtained at about 57 ± 3.38 min post-dosing. Participants were instructed to lie still and maintain their gaze on a centrally placed fixation cross during scanning. We assessed participants’ levels of alertness (anchors: alert-drowsy) and excitement (anchors: excited-calm) using visual analogue scales (0–100) at three different time-points during the scanning session to evaluate subjective drug effects across time (data reported elsewhere[11]).
(§1) We used the CONN functional connectivity toolbox[97] to generate brain-wide functional connectivity matrices for each subject/session. […] The default atlas of the CONN toolbox includes 132 non-overlapping ROIs spanning cortical and subcortical areas and the cerebellum using a combination of the cortical and subcortical areas from the FSL Harvard-Oxford atlas and of the cerebellar areas of the Automatic Anatomical Labelling atlas (Supplementary data 1 for a detailed description). […] Finally, we normalized our correlation measures to z-scores using the Fisher’s r-z transform per subject/session.
We then used our z-transformed connectivity matrices to construct brain graphs representing a functional connectivity network for each subject/session. We used an undirected signed weighted approach in which we kept information about the sign and weight of each of the connections between the nodes (ROIs) of our network, without making assumptions about the direction of this relationship. […]
For each of the graph metrics analysed, we summarized the different values over the range of thresholds using the area under the curve (AUC), instead of applying multiple testing for each metric/threshold. […]

[2] = system: human functional connectome at rest; assay: Resting-state BOLD-fMRI: network edges (microscale), FDR and Network Based Statistics; format: in vivo
From the text: as §1
We did so by examining treatment-related changes in mean connectivity and global efficiency of the whole-brain network (macroscale), graph properties of regional connectivity at the node level (mesoscale) and individual connections between pairs of nodes (microscale). These analyses were performed using repeated measures one-way analysis of variance, implemented in Matlab 2016. When a significant effect was found, we followed up with post-hoc paired t-tests between each pair of the four treatment conditions, using FDR correction for multiple testing.
Microscale. We performed two different analyses to investigate treatment-related changes on each individual edge of the connectivity matrices. […]

[3] = cited from earlier work
From the text: It is not yet clear which precise mechanisms mediate the effects of intravenous oxytocin on brain function. […] At least three mechanisms have been postulated. First, it is possible that the direct peripheral effects of oxytocin on oxytocin receptors expressed in vegetative territories, such as the heart, may be an indirect source of changes in the brain.

CC[C@H](C)[C@@H]1NC(=O)[C@H](Cc2ccc(O)cc2)NC(=O)[C@@H](N)CSSC[C@@H](C(=O)N2CCC[C@H]2C(=O)N[C@@H](CC(C)C)C(=O)NCC(N)=O)NC(=O)[C@H](CC(N)=O)NC(=O)[C@H](CCC(N)=O)NC1=O [oxytocin]
Nodes with increased local efficiency compared to placebo ([1]; intravenous, 10 IU): increased the local efficiency of the right superior frontal gyrus, right frontal pole, anterior cingulate, left cuneal cortex, right posterior supramarginal gyrus and the brainstem
Nodes with increased local efficiency compared to placebo ([1]; nebuliser, 40 IU intranasal): increased the local efficiency of the right cuneal cortex and the left posterior supramarginal gyrus
Nodes with increased local efficiency compared to placebo ([1]; spray, 40 IU intranasal): increased the local efficiency of the right superior frontal gyrus, right anterior and posterior medial temporal gyri, right posterior superior temporal gyrus, right cuneal cortex and left cerebellum (area 1)
Connectivity of individual edges across the four treatment conditions ([2]; FDR correction for the number of edges): did not find any individual edge where the four treatment conditions differed in connectivity
Connectivity of subnetworks across the four treatment conditions ([2]; NBS, irrespective of the primary threshold used): did not identify any subnetwork where the four treatment conditions differed on connectivity
Amount crossing the blood–brain barrier (BBB) [3]: very small amounts
Effects on heart-rate or heart-rate variability ([3]; same doses/methods and cohort of participants): absence of effects
